Molecular target: T1, NKCC1 (Homo sapiens, UniProt P55011)
T1 construct: endogenous in cells; host or cells: native HEK293 cells
T1 sequence (P55011 1-1212): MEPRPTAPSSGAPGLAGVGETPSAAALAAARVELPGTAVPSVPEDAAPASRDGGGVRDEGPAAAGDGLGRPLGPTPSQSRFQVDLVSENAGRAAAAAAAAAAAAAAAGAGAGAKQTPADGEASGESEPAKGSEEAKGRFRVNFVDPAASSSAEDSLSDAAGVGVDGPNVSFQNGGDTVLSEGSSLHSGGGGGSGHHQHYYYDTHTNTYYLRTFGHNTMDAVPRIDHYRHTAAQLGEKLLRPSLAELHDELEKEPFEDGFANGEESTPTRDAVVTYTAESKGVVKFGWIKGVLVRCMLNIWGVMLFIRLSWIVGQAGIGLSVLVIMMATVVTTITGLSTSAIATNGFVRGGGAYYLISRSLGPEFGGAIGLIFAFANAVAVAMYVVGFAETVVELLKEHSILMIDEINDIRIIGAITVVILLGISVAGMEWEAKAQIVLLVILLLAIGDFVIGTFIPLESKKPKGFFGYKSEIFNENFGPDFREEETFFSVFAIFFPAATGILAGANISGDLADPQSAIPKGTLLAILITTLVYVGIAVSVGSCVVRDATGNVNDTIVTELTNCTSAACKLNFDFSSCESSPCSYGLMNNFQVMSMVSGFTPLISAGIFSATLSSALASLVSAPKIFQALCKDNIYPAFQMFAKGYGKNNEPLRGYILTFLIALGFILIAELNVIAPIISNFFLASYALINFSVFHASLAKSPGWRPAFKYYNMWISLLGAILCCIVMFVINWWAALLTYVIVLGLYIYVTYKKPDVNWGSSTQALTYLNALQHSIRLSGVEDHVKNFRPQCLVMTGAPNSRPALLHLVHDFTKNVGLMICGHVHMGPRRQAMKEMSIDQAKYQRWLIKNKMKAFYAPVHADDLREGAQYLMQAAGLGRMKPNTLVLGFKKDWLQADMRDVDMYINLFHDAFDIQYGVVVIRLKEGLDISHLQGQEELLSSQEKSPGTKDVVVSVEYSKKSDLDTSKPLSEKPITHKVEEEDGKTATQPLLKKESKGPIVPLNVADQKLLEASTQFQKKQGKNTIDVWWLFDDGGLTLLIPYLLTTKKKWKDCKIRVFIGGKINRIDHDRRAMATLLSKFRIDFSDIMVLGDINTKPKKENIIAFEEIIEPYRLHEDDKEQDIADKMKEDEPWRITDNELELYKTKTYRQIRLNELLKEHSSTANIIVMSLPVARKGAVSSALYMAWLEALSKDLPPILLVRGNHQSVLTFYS
Assay: NKCC1-mediated K+ influx (83Rb tracer uptake) in native HEK293 cells, hypertonic saline, 100 μM ouabain
Format: cell-based
Settings: HEK293, no drug = 1000, 20 μM bumetanide = 0; for inhibition at 2 µM: read-out: NKCC1 mediated flux inhibition at 2 μM (%); for inhibition at 20 µM: read-out: NKCC1 mediated flux inhibition at 20 μM (%)
Procedure, shortened: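 Native cells in slightly hypertonic saline with 100 μM ouabain; 15 min preincubation then 15 min 83Rb uptake (0.25 μCi/mL), scintillation counting normalized to protein. Compounds at 2 μM and 20 μM; flux scaled 1000 (no drug) to 0 (20 μM bumetanide), triplicate dishes.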

| SMILES | inhibition at 2 µM [%] | inhibition at 20 µM [%] |
| --- | --- | --- |
| CCCCNc1cc(-c2nc(=O)o[nH]2)cc(S(=O)(=O)Nc2ccccc2)c1Oc1ccccc1 [Compound 127, 3-(butylamino)-5-(5-oxo-2H-1,2,4-oxadiazol-3-yl)-2-phenoxy-N-phenyl-benzenesulfonamide] | 10 to 30 | 30 to 50 |
| CCCCNc1cc(-c2nnn[nH]2)cc(S(=O)(=O)Nc2ccccc2)c1Oc1ccccc1 [Compound 126, 3-(butylamino)-2-phenoxy-N-phenyl-5-(1H-tetrazol-5-yl)benzenesulfonamide] | 30 to 50 | ≥ 75 |
| CCCCNc1cc(C(=O)OC)cc(S(=N)(=O)N2CCC(c3ccccc3)CC2)c1Oc1ccccc1 (stereo not shown) [Compound 18, methyl 3-(butylamino)-4-phenoxy-5-[(4-phenyl-1-piperidyl)sulfonimidoyl]benzoate] | 30 to 50 | 10 to 30 |
| CCCCNc1cc(C(=O)NOC)cc(S(=N)(=O)NC2CCOCC2)c1Oc1ccccc1 (stereo not shown) [Compound 121, 3-(butylamino)-N-methoxy-4-phenoxy-5-[(tetrahydropyran-4-ylamino)sulfonimidoyl]benzamide] | 30 to 50 | 30 to 50 |
| CCCCNc1cc(C(=O)OC)cc(S(=N)(=O)NCCc2cccnc2)c1Oc1ccccc1 (stereo not shown) [Compound 37, methyl 3-(butylamino)-4-phenoxy-5-[[2-(3-pyridyl)ethylamino]sulfonimidoyl]benzoate] | – | 10 to 30 |
| CCCCNc1cc(C(=O)OC)cc(S(=N)(=O)NC2CCN(C)CC2)c1Oc1ccccc1 (stereo not shown) [Compound 30, methyl 3-(butylamino)-5-[[(1-methyl-4-piperidyl)amino]sulfonimidoyl]-4-phenoxy-benzoate] | – | 30 to 50 |
| CCCCNc1cc(C(=O)OC)cc(S(=N)(=O)N2CCOCC2)c1Oc1ccccc1 (stereo not shown) [Compound 6, methyl 3-(butylamino)-5-(morpholinosulfonimidoyl)-4-phenoxy-benzoate] | 10 to 30 | 30 to 50 |
| CN=S(C)(=O)c1cc(C(=O)OC)cc(N)c1Oc1ccccc1 (stereo not shown) [Compound 132, methyl 3-amino-5-(N,S-dimethylsulfonimidoyl)-4-phenoxy-benzoate] | 30 to 50 | 10 to 30 |
| CCCCNc1cc(C(=O)NC)cc(S(=N)(=O)N2Cc3ccccc3C2)c1Oc1ccccc1 (stereo not shown) [Compound 112, 3-(butylamino)-5-(isoindolin-2-ylsulfonimidoyl)-N-methyl-4-phenoxy-benzamide] | 10 to 30 | – |
| CCCCNc1cc(C(=O)O)cc(S(=N)(=O)NCc2cncnc2)c1Oc1ccccc1 (stereo not shown) [Compound 68, 3-(butylamino)-4-phenoxy-5-[(pyrimidin-5-ylmethylamino)sulfonimidoyl]benzoic acid] | 50 to 75 | ≥ 75 |
| CCCCNc1cc(C(=O)OC)cc(S(=N)(=O)NC2CCOCC2)c1Oc1ccccc1 (stereo not shown) [Compound 29, methyl 3-(butylamino)-4-phenoxy-5-[(tetrahydropyran-4-ylamino)sulfonimidoyl]benzoate] | – | 10 to 30 |
| CCCCNc1cc(C(=O)OC)cc(S(=N)(=O)NCCc2ccccc2)c1Oc1ccccc1 (stereo not shown) [Compound 34, methyl 3-(butylamino)-4-phenoxy-5-[(2-phenylethylamino)sulfonimidoyl]benzoate] | – | 30 to 50 |
| CCCCNc1cc(C(=O)NCCOC)cc(S(=N)(=O)NC2CCOCC2)c1Oc1ccccc1 (stereo not shown) [Compound 122, 3-(butylamino)-N-(2-methoxyethyl)-4-phenoxy-5-[(tetrahydropyran-4-ylamino)sulfonimidoyl]benzamide] | 30 to 50 | 30 to 50 |
| CCCCNc1cc(C(=O)NCC(F)(F)F)cc(S(=N)(=O)N2Cc3ccccc3C2)c1Oc1ccccc1 (stereo not shown) [Compound 115, 3-(butylamino)-5-(isoindolin-2-ylsulfonimidoyl)-4-phenoxy-N-(2,2,2-trifluoroethyl)benzamide] | 50 to 75 | 10 to 30 |
| CCCCNc1cc(C(=O)NC)cc(S(=N)(=O)NCc2cccc(Cl)c2)c1Oc1ccccc1 (stereo not shown) [Compound 116, 3-(butylamino)-5-[[(3-chlorophenyl)methylamino]sulfonimidoyl]-N-methyl-4-phenoxy-benzamide] | 30 to 50 | – |
| CCCCNc1cc(C(=O)OC)cc(S(=N)(=O)NCCCC)c1Oc1ccccc1 (stereo not shown) [Compound 46, methyl 3-(butylamino)-5-(butylaminosulfonimidoyl)-4-phenoxy-benzoate] | 30 to 50 | 30 to 50 |
| CCCCNc1cc(C(=O)OC)cc(S(=N)(=O)NCC2CCN(C)CC2)c1Oc1ccccc1 (stereo not shown) [Compound 50, methyl 3-(butylamino)-5-[[(1-methyl-4-piperidyl)methylamino]sulfonimidoyl]-4-phenoxy-benzoate] | 30 to 50 | 30 to 50 |
| CCCCNc1cc(C(=O)NOC)cc(S(=N)(=O)Nc2ccccc2)c1Oc1ccccc1 (stereo not shown) [Compound 108, 3-(anilinosulfonimidoyl)-5-(butylamino)-N-methoxy-4-phenoxy-benzamide] | 30 to 50 | 30 to 50 |
| CCCCNc1cc(C(=O)O)cc(S(=N)(=O)N2CCC(c3ccccc3)CC2)c1Oc1ccccc1 (stereo not shown) [Compound 66, 3-(butylamino)-4-phenoxy-5-[(4-phenyl-1-piperidyl)sulfonimidoyl]benzoic acid] | 30 to 50 | ≥ 75 |

The remaining lines, values ahead:

| inhibition at 2 µM [%] | inhibition at 20 µM [%] | SMILES |
| --- | --- | --- |
| ≥ 75 | ≥ 75 | CCCCNc1cc(C(=O)O)cc(S(=N)(=O)Nc2cccc(Cl)c2)c1Oc1ccccc1 (stereo not shown) [Compound 70, 3-(butylamino)-5-[(3-chloroanilino)sulfonimidoyl]-4-phenoxy-benzoic acid] |
| – | 30 to 50 | CCCCNc1cc(C(=O)O)cc(S(=N)(=O)N2CCOCC2)c1Oc1ccccc1 (stereo not shown) [Compound 56, 3-(butylamino)-5-(morpholinosulfonimidoyl)-4-phenoxy-benzoic acid] |
| 10 to 30 | 10 to 30 | CCCCNc1cc(C(=O)OC)cc(S(=N)(=O)N(C)c2ccccc2)c1Oc1ccccc1 (stereo not shown) [Compound 14, methyl 3-(butylamino)-5-[(N-methylanilino)sulfonimidoyl]-4-phenoxy-benzoate] |
| 30 to 50 | 50 to 75 | CCCCNc1cc(C(=O)O)cc(S(=N)(=O)NC2CCN(C)CC2)c1Oc1ccccc1 (stereo not shown) [Compound 79, 3-(butylamino)-5-[[(1-methyl-4-piperidyl)amino]sulfonimidoyl]-4-phenoxy-benzoic acid] |
| – | 50 to 75 | CCCCNc1cc(C(=O)O)cc(S(=N)(=O)N(C)CC)c1Oc1ccccc1 (stereo not shown) [Compound 55, 3-(butylamino)-5-[[ethyl(methyl)amino]sulfonimidoyl]-4-phenoxy-benzoic acid] |
| 30 to 50 | 50 to 75 | CCCCNc1cc(C(=O)O)cc(S(=N)(=O)N(C)C)c1Oc1ccccc1 (stereo not shown) [Compound 52, 3-(butylamino)-5-(dimethylaminosulfonimidoyl)-4-phenoxy-benzoic acid] |
| ≥ 75 | ≥ 75 | CCCCNc1cc(C(=O)O)cc(S(=N)(=O)Nc2cnccn2)c1Oc1ccccc1 (stereo not shown) [Compound 73, 3-(butylamino)-4-phenoxy-5-[(pyrazin-2-ylamino)sulfonimidoyl]benzoic acid] |
| – | 50 to 75 | CCCCNc1cc(C(=O)O)cc(S(=N)(=O)Nc2nccn2C)c1Oc1ccccc1 (stereo not shown) [Compound 88, 3-(butylamino)-5-[[(1-methylimidazol-2-yl)amino]sulfonimidoyl]-4-phenoxy-benzoic acid] |
| 30 to 50 | ≥ 75 | CCCCNc1cc(C(=O)O)cc(S(=N)(=O)NCc2cccnc2)c1Oc1ccccc1 (stereo not shown) [Compound 83, 3-(butylamino)-4-phenoxy-5-[(3-pyridylmethylamino)sulfonimidoyl]benzoic acid] |
| 50 to 75 | ≥ 75 | CCCCNc1cc(C(=O)O)cc(S(=N)(=O)Nc2ccn(C)n2)c1Oc1ccccc1 (stereo not shown) [Compound 67, 3-(butylamino)-5-[[(1-methylpyrazol-3-yl)amino]sulfonimidoyl]-4-phenoxy-benzoic acid] |

Reference: US20260374782A1, “NEW COMPOUNDS, PROCESSES FOR PREPARING THE SAME AND THEIR USE AS DRUGS” (B&A ONCOMEDICAL, priority 2022, published 2026)
